Converted amounts (≈) assume the structure as drawn. Like-named read-outs stand apart in the source and are kept apart here.
Columns and labels:
Type in all cases: cell-based
Yersinia enterocolitica = assay: MIC by agar dilution (NCCLS M7-A4), 288 enteropathogenic isolates, gemifloxacin and 15 other antimicrobials; details: Yersinia enterocolitica N= 22
Shigella spp. = assay: as above; details: Shigella spp. N= 21
Procedure, shortened: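 Agar dilution with ~10^4 cfu/spot inoculum; plates incubated aerobically at 35 °C for 24 h, except C. jejuni, held microaerophilically for 48 h. MIC taken as lowest antibiotic concentration with no visible growth.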

Klebsiella pneumoniae = assay: MIC by agar dilution (NCCLS), 322 nosocomial Gram negative isolates, Athens 1998; details: n = 56 isolates
Haemophilus influenzae = assay: MIC by broth microdilution (NCCLS), dried MicroScan panels, clinical isolates 1998-1999; details: for MIC90: Haemophilus influenzae
Hafnia alvei = assay: MIC by agar dilution (NCCLS M7-A4), 288 enteropathogenic isolates, eight quinolones; details: Hafnia alvei (n = 32)
Enterococcus faecium = assay: MIC by agar macrodilution (NCCLS), 373 Gram positive isolates, Athens 1998
Enterobacter spp. = assay: MIC by agar dilution (NCCLS), 322 nosocomial Gram negative isolates, Athens 1998; details: Enterobacter, n = 57 isolates
Salmonella spp. = assay: MIC by agar dilution (NCCLS M7-A4), 288 enteropathogenic isolates, eight quinolones; details: for MIC: ciprofloxacin MIC ≥[…], read-out: MIC
[1] = tested on: Mycobacterium tuberculosis (MTB); assay: MIC by proportions method (NCCLS M24-T, 1995), 82 MTB strains; details: Mycobacterium tuberculosis; 82 MTB strains
Proteus mirabilis = assay: MIC by agar dilution (NCCLS), 322 nosocomial Gram negative isolates, Athens 1998; details: Proteus mirabilis; n = 57 isolates
Klebsiella oxytoca = assay: MIC by NCCLS broth microdilution, 1100 Japanese clinical isolates 1997-1998; details: Klebsiella oxytoca (n=40)
Morganella morganii = assay: as above; details: Morganella morganii (n=40)
E. coli = assay: microbe, parasite or virus in culture; details: Escherichia coli
Enterobacter cloacae = assay: MIC by NCCLS broth microdilution, 1100 Japanese clinical isolates 1997-1998; details: Enterobacter cloacae (n=40)
Enterococcus faecalis = assay: as above; details: for MIC50 / MIC90: Enterococcus faecalis; for MIC90: read-out: MIC90
Enterococcus gallinarum = assay: as above; details: Enterococcus gallinarum, GALLINARUM
Staphylococcus aureus = assay: microbe, parasite or virus in culture; details: Staphylococcus aureus
[2] = 24 h, read-out: MIC (mg/L) Range
[3] = Haemophilus influenzae (300 isolates)
[4] = Enterococcus faecalis ciprofloxacin susceptible (n=24)
[5] = Enterococcus faecalis ciprofloxacin resistant (n=15)

## Cc1c(F)c(N2CCNC(C)C2)cc2c1c(=O)c(C(=O)O)cn2C1CC1 (stereo not drawn) [Grepafloxacin, grepafloxacin]
Yersinia enterocolitica; [2]
  MIC: 0.015 to 0.25 mg/L (≈ 0.0417 to 0.696 µM)
Yersinia enterocolitica; read-out: MIC (mg/L) 50%
  MIC: 0.03 mg/L (≈ 0.0835 µM)
Yersinia enterocolitica; read-out: MIC (mg/L) 90%
  MIC: 0.03 mg/L (≈ 0.0835 µM)
Shigella spp.; [2]
  MIC: 0.015 to 0.03 mg/L (≈ 0.0417 to 0.0835 µM)
Shigella spp.; read-out: MIC (mg/L) 50%
  MIC: ≤ 0.015 mg/L
Shigella spp.; read-out: MIC (mg/L) 90%
  MIC: 0.03 mg/L (≈ 0.0835 µM)
Klebsiella pneumoniae; Klebsiella pneumoniae
  MIC50: 0.125 µg/mL (≈ 0.348 µM)
  MIC90: 1 µg/mL (≈ 2.78 µM)
Klebsiella pneumoniae
  MIC Range: ≤0.03 to 64 µg/mL
Haemophilus influenzae; [3]
  MIC50: ≤ 0.015 µg/mL
  MIC Range: ≤0.015 to 0.12 µg/mL
  MIC90: ≤ 0.015 µg/mL
Haemophilus influenzae; β-lactamase negative (234)
  MIC90: ≤ 0.015 µg/mL
Haemophilus influenzae; β-lactamase positive (66)
  MIC90: 0.03 µg/mL (≈ 0.0835 µM)
Hafnia alvei
  % Susceptible: 100%
  MIC50: 0.03 µg/mL (≈ 0.0835 µM)
  MIC90: 0.06 µg/mL (≈ 0.167 µM)
  MIC Range: ≤0.015 to 0.06 µg/mL
Enterococcus faecium
  MIC distribution (µg/ml) 0.03: 0
  MIC distribution (µg/ml) 0.06: 0
  MIC distribution (µg/ml) 0.125: 0
  MIC distribution (µg/ml) 0.25: 2
  MIC distribution (µg/ml) 0.5: 4
  MIC distribution (µg/ml) 1: 3
  MIC distribution (µg/ml) 2: 0
  MIC distribution (µg/ml) 4: 0
  MIC distribution (µg/ml) 8: 1
  MIC distribution (µg/ml) 16: 1
  MIC distribution (µg/ml) ≤0.015: 0
  MIC distribution (µg/ml) ≥32: 3
Enterococcus faecium; Enterococcus faecium, n = 14 isolates, read-out: MIC50
  MIC50: 2 µg/mL (≈ 5.56 µM)
Enterococcus faecium; Enterococcus faecium, n = 14 isolates, read-out: MIC90
  MIC90: ≥ 32 µg/mL
Enterobacter spp.; read-out: MIC50
  MIC50: 0.06 µg/mL (≈ 0.167 µM)
Enterobacter spp.; read-out: MIC90
  MIC90: > 64 µg/mL
Salmonella spp.; S. hadar (n = 2)
  MIC: 1 µg/mL (≈ 2.78 µM)
Salmonella spp.; S. newport (n = 1)
  MIC: 1 µg/mL (≈ 2.78 µM)
Salmonella spp.; S. virchow (n = 2)
  MIC: 0.25 µg/mL (≈ 0.696 µM)
Salmonella spp.; Salmonella spp. (n = 106)
  % Susceptible: 99%
  MIC50: 0.06 µg/mL (≈ 0.167 µM)
  MIC90: 0.25 µg/mL (≈ 0.696 µM)
  MIC Range: 0.03 to 2 µg/mL
Salmonella spp.; Salmonella, S. tshiongwe (n = 1)
  MIC: 2 µg/mL (≈ 5.56 µM)
[1]
  MIC90: 2 µg/mL (≈ 5.56 µM)
Proteus mirabilis
  MIC50: 0.5 µg/mL (≈ 1.39 µM)
  MIC90: 16 µg/mL (≈ 44.5 µM)

## NC1CCN(c2nc3c(cc2F)c(=O)c(C(=O)O)cn3-c2ccc(F)cc2F)C1 (stereo not drawn) [Tosufloxacin, tosufloxacin]
Klebsiella oxytoca
  MIC50: 0.032 µg/mL (≈ 0.0791 µM)
  MIC90: 4 µg/mL (≈ 9.89 µM)
  MIC Range: ≤0.008 to 16 µg/mL
Morganella morganii
  MIC Range: 0.032 to 16 µg/mL
Morganella morganii; read-out: MIC50
  MIC50: 0.063 µg/mL (≈ 0.156 µM)
Morganella morganii; read-out: MIC90
  MIC90: 0.25 µg/mL (≈ 0.618 µM)
E. coli; E. coli (13 strains), quinolone-resistant, read-out: MIC50
  MIC50: 0.063 µg/mL (≈ 0.156 µM)
E. coli; E. coli (13 strains), quinolone-resistant, read-out: MIC90
  MIC90: 0.25 µg/mL (≈ 0.618 µM)
E. coli; E. coli KU1029, mutant type SP (spontaneous mutant in the DNA gyrase)
  MIC: 0.063 µg/mL (≈ 0.156 µM)
E. coli; E. coli KU1030, mutant type SP
  MIC: 0.031 µg/mL (≈ 0.0767 µM)
E. coli; E. coli KU1031, mutant type SP
  MIC: 0.031 µg/mL (≈ 0.0767 µM)
E. coli; E. coli KU1032, mutant type SP
  MIC: 0.125 µg/mL (≈ 0.309 µM)
E. coli; E. coli KU1033, mutant type SP
  MIC: 0.031 µg/mL (≈ 0.0767 µM)
E. coli; E. coli KU1034, mutant type GA (DNA gyrase A)
  MIC: 0.25 µg/mL (≈ 0.618 µM)
E. coli; E. coli KU1035, mutant type GA (DNA gyrase A)
  MIC: 0.25 µg/mL (≈ 0.618 µM)
E. coli; E. coli KU1036, mutant type GB (DNA gyrase B)
  MIC: 0.031 µg/mL (≈ 0.0767 µM)
E. coli; E. coli KU1038, mutant type SP
  MIC: 0.063 µg/mL (≈ 0.156 µM)
E. coli; E. coli KU1039, mutant type SP
  MIC: 0.063 µg/mL (≈ 0.156 µM)
E. coli; E. coli KU1040, mutant type SP
  MIC: ≤ 0.008 µg/mL
E. coli; E. coli KU1041, mutant type SP
  MIC: 0.25 µg/mL (≈ 0.618 µM)
E. coli; E. coli KU1042, mutant type SP
  MIC: 0.063 µg/mL (≈ 0.156 µM)
Enterobacter cloacae
  MIC50: 0.032 µg/mL (≈ 0.0791 µM)
  MIC90: 1 µg/mL (≈ 2.47 µM)
  MIC Range: ≤0.008 to 2 µg/mL
Enterococcus faecalis; [4]
  MIC Range: 0.5 - 0.5 µg/ml
  MIC50: 0.5 µg/mL (≈ 1.24 µM)
  MIC90: 0.5 µg/mL (≈ 1.24 µM)
Enterococcus faecalis; [5]
  MIC50: 32 µg/mL (≈ 79.1 µM)
  MIC90: 32 µg/mL (≈ 79.1 µM)
Enterococcus gallinarum
  MIC: 0.125 µg/mL (≈ 0.309 µM)
Enterococcus gallinarum; Enterococcus gallinarum (vanC1), strain TMS1, read-out: MIC
  MIC: 0.25 µg/mL (≈ 0.618 µM)
Enterococcus gallinarum; Enterococcus gallinarum (vanC1), strain TMS2, read-out: MIC
  MIC: 0.5 µg/mL (≈ 1.24 µM)
Enterococcus gallinarum; Enterococcus gallinarum (vanC1), strain TMS3, read-out: MIC
  MIC: 0.5 µg/mL (≈ 1.24 µM)
Staphylococcus aureus; S. aureus KU2240, mutant type Wild (wild strain)
  MIC: 0.063 µg/mL (≈ 0.156 µM)
Staphylococcus aureus; S. aureus KU2241, mutant type NorA (efflux-mediated quinolone resistant)
  MIC: 0.125 µg/mL (≈ 0.309 µM)
Staphylococcus aureus; S. aureus KU2242, mutant type T (DNA topoisomerase IV)
  MIC: 0.25 µg/mL (≈ 0.618 µM)
Staphylococcus aureus; S. aureus KU2243, mutant type G+T (DNA gyrase and topoisomerase IV)
  MIC: > 128 µg/mL
Staphylococcus aureus; S. aureus KU2244, mutant type G (DNA gyrase)
  MIC: 0.125 µg/mL (≈ 0.309 µM)
Staphylococcus aureus; S. aureus KU2246, mutant type T (DNA topoisomerase IV)
  MIC: 0.5 µg/mL (≈ 1.24 µM)

Source: patent publication EP1561465A2, “Methods of use of fluoroquinolone compounds against bacteria” (LG Life Sciences, Ltd., priority 1999, dated 2001)
